Experimental findings from patent US8952033B2, “4-anilinofuro[2,3-b]quinoline derivatives, their preparation processes, and pharmaceutical compositions comprising the same” (Kaohsiung Medical University, priority 2011, dated 2015) are described below.

For the experiment, the system named is NCI-H1299 (non-small cell lung carcinoma cell). The experiment can be described thus: Preferential antiproliferative activity, NCI-H1299. Format: cell-based. The procedure: Determination of GI50 of compounds 13a, 13c, 14a, 14c, 15a, 16a was conducted substantially according to the method as described in the preceding section A entitled “Evaluation of antiproliferative activity”, except that the normal cell line MRC-5 was also utilized, and that camptothecin and daunorubicin were tested instead of compounds 1, 2, 3. The concentration of the respective test compound, which can reduce absorbance by 50% (compared with DMSO), is regarded as GI50, and can be determined via dose-response curves. Determination of GI50 was conducted thrice for each test compound. GI50 is expressed as mean±SD.
SI stands for selectivity index and was calculated by substituting GI50 into the following formula: D=E/F (2) where • D=SI • E=GI50 of the respective test compound for cells of the normal cell line • F=GI50 of the respective test compound for cells of the cancer cell line The experimental results are summarized in Table 4. […]

In turn, `C/C(=N\OCCN)c1ccc(Nc2c3ccccc3nc3occc23)cc1` [Compound 13a, (E)-1-(4-(furo[2,3-b]quinolin-4-ylamino)phenyl)ethanone O-2-aminoethyl oxime] registered a GI50 (Homo sapiens, NCI-H1299, mean±SD) of 3.08 ± 1.12 µM. In addition, the “SI NCI-H1299” value (versus MRC-5) turned out to be 13.91.
